Measurements: patent publication US6593137B1, “Antibodies specific for fullerenes” (The Trustees of Columbia University in the City of New York, priority 1999, dated 2003)
Blank lines part the entries; values can stand above or below the compound they belong to.

Assays:
[1] = test system: human keratinocytes and fibroiblasts; conditions: cited from earlier work
[2] = test system: Sprague-Dawley rats; assay: γ-camera imaging study; assay type: in vivo; conditions: IP
Procedure: The biodistribution in mice of hydroxylated lanthanide-C82 encapsulates is under current investigation. The results presented here are regarded as preliminary as the sample is still small. Studies continue under a NIH Phase I grant. The neutron irradiated samples, along with a ^166Ho^3+ control sample, were used to perform a γ-camera imaging study on four 300 g Sprague-Dawley rats. Two rats were injected intraperitoneally (IP) with 54 and 18 μCi of ^166Ho activity from samples containing irradiated Ho-metallofullerois. Two control studies were performed by IP administration of approximately 660 μCi of ^166Ho^3+ in a 1% sodium citrate buffer. The anesthetized rats were scanned side-by-side on a single stage with a γ-camera starting 1 hour after injection and periodically thereafter over the ensuing 48 hours.

[3] = Air sensitivity; assay type: physicochemical
Text: While previous work reported in the literature performed HPLC under aerobic conditions, (see for example Funasaka et al. 1995) these studies determined that anaerobic controls better preserved the fraction of Gd@C82 in solution. […] The fraction containing the Gd@C82 was identified using MS. The solubility of fullerenes in o-xylene is about three times that of toluene and this greatly increases the ratio of fullerenes in solution to those retained on the stationary phase. Therefore, the capacity or amount of fullerenes purified per injection was very large. Each injection contained 2 ml of saturated fullerene o-xylene solution (about 30 mg of fullerenes).

[4] = test system: anti-fullerene antibodies; assay: ELISA competitive inhibition of antibody binding to 1-RSA; parameters: species or system BALB/c mice
Procedure: After a total of three immunizations at 3-week intervals, confirmation of an immune response was determined by direct ELISA in which polystyrene plates (Corning) were coated with the 1-RSA conjugate (0.5 mg/ml in 0.1 M NaHCO3, pH 9), and binding of preimmune and immune sera were determined by standard procedures. Development was with horseradish peroxidase-labeled goat anti-mouse IgG (Sigma), which tested negative for crossreaction with an IgM preparation. The substrate used was o-phenylenediamine.
(§1) Specificity of the resp)onse was determined by two procedures: double diffusion in agar (22) and competitive inhibition, as determined by ELISA using RSA and BSA conjugates of the fullerenes, as well as the oligo lysine derivatives. The fullerenes themselves were not soluble enough in aqueous solutions.
The adenosine conjugate had been synthesized using the same strategy used for the fullerenes, i.e., linkage to the epsilon amino groups of the lysines via an N-hydroxysuccinimide ester derivative.

[5] = test system: anti-fullerene antibodies; assay: Double diffusion in agar; assay type: binding, BALB/c mice
Procedure: Immunization Procedure and Detection of Antibodies. BALB/c mice were immunized i.p. with 1-TG in complete Freund's adjuvant for the primary immunization and incomplete adjuvant for subsequent immunizations.
as §1
Specificity of the response was determined by two procedures: Double diffusion in agar and competitive inhibition, as determined by ELISA using RSA and BSA conjugates of the fullerenes, as well as the oligo lysine derivatives. The fullerenes themselves were not soluble enough in aqueous solutions.

Compound: c12c3c4c5c1c1c6c7c2c2c8c3c3c9c4c4c%10c5c5c1c1c6c6c%11c7c2c2c7c8c3c3c8c9c4c4c9c%10c5c5c1c1c6c6c%11c2c2c7c3c3c8c4c4c9c5c1c1c6c2c3c41 [Compound C60, fullerene-C60]
effect on rate of thymidine uptake [1]: no effect

Compound: [166Ho+3] [^166Ho^3+]
excretion of 166Ho activity ([2]; after 24 hours): essentially all ^166Ho activity had been excreted | urinary clearance ([2]; commencing 1 hour post-injection): rapid ^166Ho^3+ urinary clearance

Compound: Gd@C82(OH)x
air sensitivity [3]: does not appear to be air sensitive

inhibition of antibody binding to 1-RSA [4]: No inhibition
Compound: Rabbit Serum Albumin [RSA]

inhibition of antibody binding to 1-RSA [4]: No inhibition
Compound: bovine thyroglobulin [TG]
precipitation with immune serum in double diffusion in agar ([5]; TG solution diluted 5-fold): a line of precipitation was seen | precipitation with immune serum in double diffusion in agar ([5]; serum of mice immunized with 1-TG): no visible precipitate
